Values quoted from earlier work in US20140010802A1, “SYSTEMS AND METHODS FOR DIAGNOSING A PREDISPOSITION TO DEVELOP CANCER” (University of Hawaii, Office of Technology Transfer and …, priority 2011, published 2014).

System: MM patients
Settings: phase 1 clinical trial, 3 MM patients

## Cc1c(CN2CCN(C(=O)[C@H](C)O)CC2)sc2c(N3CCOCC3)nc(-c3cnc(N)nc3)nc12 [GDC0980]
  anti-tumor effects in patients: anti-tumor effects
